Consider 23 compounds from patent US11254663B2 (BRISTOL-MYERS SQUIBB COMPANY, priority 2019, dated 2022).

Molecules are shown by their SMILES.

The target of the assay is FXR (Homo sapiens (Human), UniProt Q96RI1). The assay is described as follows: FXR EC50 (FXR agonist potency reported with each Example). The format is cell-based.
FXR, sequence (Q96RI1 262-486): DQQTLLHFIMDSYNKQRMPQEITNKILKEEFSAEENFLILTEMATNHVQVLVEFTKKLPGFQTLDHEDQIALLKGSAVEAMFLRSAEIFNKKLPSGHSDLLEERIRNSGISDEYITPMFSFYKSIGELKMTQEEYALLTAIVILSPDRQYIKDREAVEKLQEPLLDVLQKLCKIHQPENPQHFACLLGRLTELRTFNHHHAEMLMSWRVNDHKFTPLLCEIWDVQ
`O=C(C1CC(O)(C(F)(F)F)C1)N(CC12CCC(c3nc(C4CC4)no3)(CC1)CC2)c1cccc(-c2cnc(C3CC3)o2)c1` [Example 21, (1S,3S)—N-((4-(3-cyclopropyl-1,2,4-oxadiazol-5-yl)bicyclo[2.2.2]octan-1-yl)methyl)-N-(3-(2-cyclopropyloxazol-5-yl)phenyl)-3-hydroxy-3-(trifluoromethyl)cyclobutane-1-carboxamide] showed a 50% effective concentration (EC50) of 80 nM.
`O=C(N(CC12CCC(c3nc(C4CC4)no3)(CC1)CC2)c1cccc(-c2cnn(CC(F)(F)F)c2)c1)C12CC(F)(C1)C2` [Example 162, N-((4-(3-cyclopropyl-1,2,4-oxadiazol-5-yl)bicyclo[2.2.2]octan-1-yl)methyl)-3-fluoro-N-(3-(1-(2,2,2-trifluoroethyl)-1H-pyrazol-4-yl)phenyl)bicyclo[1.1.1]pentane-1-carboxamide] came in with an EC50 of 116 nM.
The value for `O=C(N(CC12CCC(c3nc(C(F)F)no3)(CC1)CC2)c1cccc(-c2noc(C3CC3)n2)c1)C12CC(F)(C1)C2` [Example 172, N-(3-(5-cyclopropyl-1,2,4-oxadiazol-3-yl)phenyl)-N-((4-(3-(difluoromethyl)-1,2,4-oxadiazol-5-yl)bicyclo[2.2.2]octan-1-yl)methyl)-3-fluorobicyclo[1.1.1]pentane-1-carboxamide] was 154 nM; that for `CC(C)(C)c1nc(-c2cccc(N(CC34CCC(c5cnc(C(F)(F)F)nc5)(CC3)OC4)C(=O)C34CC(F)(C3)C4)c2)no1` [Example 181, N-(3-(5-(tert-butyl)-1,2,4-oxadiazol-3-yl)phenyl)-3-fluoro-N-((1-(2-(trifluoromethyl)pyrimidin-5-yl)-2-oxabicyclo[2.2.2]octan-4-yl)methyl)bicyclo[1.1.1]pentane-1-carboxamide] was 828 nM; that for `N#CC1(c2ccc(C34CCC(CN(C(=O)C5CC(F)(F)C5)c5cccc(-c6nc(C7CC7)no6)c5)(CC3)CO4)cc2)CC1` [Example 145, N-((1-(4-(1-cyanocyclopropyl)phenyl)-2-oxabicyclo[2.2.2]octan-4-yl)methyl)-N-(3-(3-cyclopropyl-1,2,4-oxadiazol-5-yl)phenyl)-3,3-difluorocyclobutane-1-carboxamide] was 4320 nM.
Compound `CCc1noc(-c2cccc(N(CC34CCC(c5nc(C)no5)(CC3)CC4)C(=O)C34CC(F)(C3)C4)c2)n1` [Example 3, N-(3-(3-ethyl-1,2,4-oxadiazol-5-yl)phenyl)-3-fluoro-N-((4-(3-methyl-1,2,4-oxadiazol-5-yl)bicyclo[2.2.2]octan-1-yl)methyl)bicyclo[1.1.1]pentane-1-carboxamide] came in with an EC50 of 346 nM.
Compound `O=C(N(CC12CCC(c3noc(C4CC4)n3)(CC1)CC2)c1cccc(-c2nc(C3CC3)no2)c1)C12CC(F)(C1)C2` [Example 116, N-((4-(5-cyclopropyl-1,2,4-oxadiazol-3-yl)bicyclo[2.2.2]octan-1-yl)methyl)-N-(3-(3-cyclopropyl-1,2,4-oxadiazol-5-yl)phenyl)-3-fluorobicyclo[1.1.1]pentane-1-carboxamide] had an EC50 of 117 nM.
On to `CC(C)(O)c1coc(-c2cccc(N(CC34CCC(c5nc(C6CC6)no5)(CC3)CC4)C(=O)C3CCC(F)(F)C3)c2)n1` (centres unmarked) [Example 18, N-((4-(3-cyclopropyl-1,2,4-oxadiazol-5-yl)bicyclo[2.2.2]octan-1-yl)methyl)-3,3-difluoro-N-(3-(4-(2-hydroxypropan-2-yl)oxazol-2-yl)phenyl)cyclopentane-1-carboxamide], for which the midpoint of the response, the EC50, lay at 154 nM. This EC50 and that of the compound before are within 1.5-fold of each other.
For `CC(C)(C)c1nc(C23CCC(CN(C(=O)C45CC(F)(C4)C5)c4cccc(-c5cnn(S(C)(=O)=O)c5)c4)(CC2)CC3)no1` [Example 194, N-((4-(5-(tert-butyl)-1,2,4-oxadiazol-3-yl)bicyclo[2.2.2]octan-1-yl)methyl)-3-fluoro-N-(3-(1-(methylsulfonyl)-1H-pyrazol-4-yl)phenyl)bicyclo[1.1.1]pentane-1-carboxamide], the concentration for a half-maximal effect (EC50) worked out at 16 nM.
In the case of `O=C(N(CC12CCC(c3nc(C4CC4)no3)(CC1)OC2)c1cccc(-c2noc(C(F)F)n2)c1)C12CC(F)(C1)C2` [Example 204, N-((1-(3-cyclopropyl-1,2,4-oxadiazol-5-yl)-2-oxabicyclo[2.2.2]octan-4-yl)methyl)-N-(3-(5-(difluoromethyl)-1,2,4-oxadiazol-3-yl)phenyl)-3-fluorobicyclo[1.1.1]pentane-1-carboxamide], a half-maximal response (EC50) required 371 nM. Against the preceding compound, the EC50 is about 23-fold higher.
`O=C(N(CC12CCC(c3nc(C4CC4)no3)(CC1)CC2)c1cccc(-c2csc(CCl)n2)c1)C12CC(F)(C1)C2` [Example 30, N-(3-(2-(chloromethyl)thiazol-4-yl)phenyl)-N-((4-(3-cyclopropyl-1,2,4-oxadiazol-5-yl)bicyclo[2.2.2]octan-1-yl)methyl)-3-fluorobicyclo[1.1.1]pentane-1-carboxamide] had a 50% effective concentration (EC50) of 112 nM.
The compound `COc1cc(-c2cccc(N(CC34CCC(c5ccc(C(C)(C)C#N)cc5)(CC3)OC4)C(=O)C3CCCC3)c2)ccn1` [Example 224, N-((1-(4-(2-cyanopropan-2-yl)phenyl)-2-oxabicyclo[2.2.2]octan-4-yl)methyl)-N-(3-(2-methoxypyridin-4-yl)phenyl)cyclopentanecarboxamide] gave an EC50 of 894 nM.
`CCOc1nnc(-c2cccc(N(CC34CCC(c5nc(C6CC6)no5)(CC3)CC4)C(=O)C34CC(F)(C3)C4)c2)o1` [Example 53, N-((4-(3-cyclopropyl-1,2,4-oxadiazol-5-yl)bicyclo[2.2.2]octan-1-yl)methyl)-N-(3-(5-ethoxy-1,3,4-oxadiazol-2-yl)phenyl)-3-fluorobicyclo[1.1.1]pentane-1-carboxamide] yielded a concentration giving a half-maximal response (EC50) of 81 nM.
In the case of `Cn1nc(C2CC2)cc1C12CCC(CN(C(=O)C34CC(F)(C3)C4)c3cccc(-c4noc(C(C)(C)C)n4)c3)(CC1)CC2` [Example 165, N-(3-(5-(tert-butyl)-1,2,4-oxadiazol-3-yl)phenyl)-N-((4-(3-cyclopropyl-1-methyl-1H-pyrazol-5-yl)bicyclo[2.2.2]octan-1-yl)methyl)-3-fluorobicyclo[1.1.1]pentane-1-carboxamide] it was 124 nM; in that of `O=C(N(CC12CCC(c3nc(C4CC4)no3)(CC1)CC2)c1cccc(-c2noc(C34CC(F)(C3)C4)n2)c1)C12CC(F)(C1)C2` [Example 102, N-((4-(3-cyclopropyl-1,2,4-oxadiazol-5-yl)bicyclo[2.2.2]octan-1-yl)methyl)-3-fluoro-N-(3-(5-(3-fluorobicyclo[1.1.1]pentan-1-yl)-1,2,4-oxadiazol-3-yl)phenyl)bicyclo[1.1.1]pentane-1-carboxamide], 1040 nM; in that of `CC(C)c1noc(C23CCC(CN(C(=O)C45CC(F)(C4)C5)c4cccc(-c5nc(C6CC6)no5)c4)(CC2)CC3)n1` [Example 89, N-(3-(3-cyclopropyl-1,2,4-oxadiazol-5-yl)phenyl)-3-fluoro-N-((4-(3-isopropyl-1,2,4-oxadiazol-5-yl)bicyclo[2.2.2]octan-1-yl)methyl)bicyclo[1.1.1]pentane-1-carboxamide], 47 nM.
With `CC(C)c1nc(-c2cccc(N(CC34CCC(c5nc(C6CC6)no5)(CC3)CC4)C(=O)C34CC(F)(C3)C4)c2)no1` [Example 109, N-((4-(3-cyclopropyl-1,2,4-oxadiazol-5-yl)bicyclo[2.2.2]octan-1-yl)methyl)-3-fluoro-N-(3-(5-isopropyl-1,2,4-oxadiazol-3-yl)phenyl)bicyclo[1.1.1]pentane-1-carboxamide], a half-maximal response (EC50) required 55 nM.
In the case of `O=C(N(CC12CCC(c3noc(C4CC4(F)F)n3)(CC1)CC2)c1cccc(-c2nc(C3CC3)no2)c1)C12CC(F)(C1)C2` (centres unmarked) [Example 123, N-(3-(3-cyclopropyl-1,2,4-oxadiazol-5-yl)phenyl)-N-((4-(5-(2,2-difluorocyclopropyl)-1,2,4-oxadiazol-3-yl)bicyclo[2.2.2]octan-1-yl)methyl)-3-fluorobicyclo[1.1.1]pentane-1-carboxamide] it was 73 nM; in that of `O=C(C1CCC(F)(F)C1)N(CC12CCC(c3nc(CC4CC4)no3)(CC1)CC2)c1cccc(-c2nc(CC3CC3)no2)c1` (centres unmarked) [Example 62, N-((4-(3-(cyclopropylmethyl)-1,2,4-oxadiazol-5-yl)bicyclo[2.2.2]octan-1-yl)methyl)-N-(3-(3-(cyclopropylmethyl)-1,2,4-oxadiazol-5-yl)phenyl)-3,3-difluorocyclopentane-1-carboxamide], 363 nM.
For `CCCc1ncc(-c2cccc(N(CC34CCC(c5nc(C6CC6)no5)(CC3)CC4)C(=O)C3CC(F)(F)C3)c2)o1` [Example 27, N-((4-(3-cyclopropyl-1,2,4-oxadiazol-5-yl)bicyclo[2.2.2]octan-1-yl)methyl)-3,3-difluoro-N-(3-(2-propyloxazol-5-yl)phenyl)cyclobutane-1-carboxamide], a half-maximal response (EC50) required 148 nM.
In turn, `CC(C)(C)c1noc(C23CCC(CN(C(=O)C45CC(F)(C4)C5)c4cccc(-c5noc(C6(C)COC6)n5)c4)(CC2)CC3)n1` [Example 174, N-((4-(3-(tert-butyl)-1,2,4-oxadiazol-5-yl)bicyclo[2.2.2]octan-1-yl)methyl)-3-fluoro-N-(3-(5-(3-methyloxetan-3-yl)-1,2,4-oxadiazol-3-yl)phenyl)bicyclo[1.1.1]pentane-1-carboxamide] had a 50% effective concentration (EC50) of 40 nM. This EC50 lies about 3.7-fold lower than the previous one.
In the case of `COc1cc(-c2cccc(N(CC34CCC(c5ccc(C(C)(C)C#N)cc5)(CC3)OC4)C(=O)C3CCC3)c2)ccn1` [Example 223, N-((1-(4-(2-cyanopropan-2-yl)phenyl)-2-oxabicyclo[2.2.2]octan-4-yl)methyl)-N-(3-(2-methoxypyridin-4-yl)phenyl)cyclobutanecarboxamide], the half-maximal effective concentration (EC50) stood at 313 nM.
`COc1ccc(NC(=O)N(CC23CCC(c4nc(C5CC5)no4)(CC2)CC3)c2cccc(-c3nc(C4CC4)no3)c2)cc1` [Example 96, 1-((4-(3-cyclopropyl-1,2,4-oxadiazol-5-yl)bicyclo[2.2.2]octan-1-yl)methyl)-1-(3-(3-cyclopropyl-1,2,4-oxadiazol-5-yl)phenyl)-3-(4-methoxyphenyl)urea] showed an EC50 of 647 nM.

The term EC50 denotes the concentration giving half of the maximal effect. High values mean lower potency in that assay, low ones higher potency in that assay.
